Data as given in ChEMBL document CHEMBL1201862, “PubChem BioAssay data set” (2004).
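Dose response: 5 concentrations. Exposure: 48 h. Format: 96-well plates. Endpoint: linear interpolation; highest concentration if not reached. The concentration for 50% growth inhibition is given as GI50.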 Active and inactive are the calls of the source. Cut-off read from the data, not from the text of the source: active = GI50 up to about 1.1 µM and inactive = higher.

Experiments:
Assay in all cases: NCI tumour cell line growth inhibition, 48 h
COLO 205 = tested on: COLO 205
NCI-H226 = tested on: NCI-H226
SF-295 = tested on: SF-295
SK-MEL-2 = tested on: SK-MEL-2
LOX IMVI = tested on: LOX IMVI
UACC-62 = tested on: UACC-62
SNB-75 = tested on: SNB-75
TK-10 = tested on: TK-10
SF-539 = tested on: SF-539
A549 = tested on: A549
U-251 = tested on: U-251
M14 = tested on: M14
RXF 393 = tested on: RXF 393
HCC 2998 = tested on: HCC 2998
OVCAR-5 = tested on: OVCAR-5
SK-OV-3 = tested on: SK-OV-3
HOP-92 = tested on: HOP-92

Measured: GI50

Cc1cc2c(cc1Br)C1(C)CCC(C)C1(C)O2 (centres undefined)
inactive: COLO 205 16.3 µM | NCI-H226 19.8 µM | SF-295 17.3 µM | SK-MEL-2 18.6 µM | LOX IMVI 18.6 µM | UACC-62 44 µM | SNB-75 36.6 µM | TK-10 > 100 µM | SF-539 > 100 µM | A549 36.5 µM | U-251 21.8 µM | M14 32.3 µM | RXF 393 15.7 µM | HCC 2998 43 µM | OVCAR-5 23.8 µM | SK-OV-3 53.3 µM | HOP-92 20.9 µM

COc1c2nc(CCl)[nH]c(=O)c2c(OC)c2nc(CCl)[nH]c(=O)c12
inactive: COLO 205 > 100 µM | NCI-H226 > 100 µM | SF-295 > 100 µM | SK-MEL-2 > 100 µM | LOX IMVI > 100 µM | UACC-62 > 100 µM | SNB-75 > 100 µM | TK-10 > 100 µM | SF-539 > 100 µM | A549 > 100 µM | U-251 > 100 µM | M14 > 100 µM | RXF 393 > 100 µM | OVCAR-5 > 100 µM | SK-OV-3 > 100 µM | HOP-92 > 100 µM

COc1cc2c(cc1OC)-c1cc3cc(OC)c(OC)cc3n1CC2
inactive: COLO 205 32.4 µM | NCI-H226 33.7 µM | SF-295 13.2 µM | SK-MEL-2 > 100 µM | UACC-62 85.5 µM | SNB-75 18.5 µM | TK-10 19.9 µM | A549 50.2 µM | U-251 37.7 µM | M14 23.4 µM | HCC 2998 61 µM | OVCAR-5 > 100 µM | SK-OV-3 30.5 µM | HOP-92 60.3 µM

CCCCCCC(=O)C/C(CCC(=O)N(Cc1ccccc1)Cc1ccccc1)=N\Nc1ccc([N+](=O)[O-])cc1[N+](=O)[O-]
inactive: COLO 205 41.1 µM | NCI-H226 > 100 µM | SF-295 55.1 µM | SK-MEL-2 83.4 µM | LOX IMVI 33.3 µM | UACC-62 16.2 µM | SNB-75 39.1 µM | TK-10 > 100 µM | SF-539 54.5 µM | A549 46.1 µM | U-251 54.1 µM | M14 57.8 µM | RXF 393 > 100 µM | HCC 2998 73.6 µM | OVCAR-5 > 100 µM | SK-OV-3 > 100 µM | HOP-92 51.1 µM

COc1ccc2c3c(coc13)C(CCC(=O)O)CC2 (centres undefined)
inactive: COLO 205 > 100 µM | SF-295 > 100 µM | LOX IMVI > 100 µM | UACC-62 > 100 µM | SNB-75 56.6 µM | TK-10 > 100 µM | SF-539 > 100 µM | A549 > 100 µM | U-251 > 100 µM | M14 > 100 µM | RXF 393 > 100 µM | HCC 2998 > 100 µM | SK-OV-3 > 100 µM

CNC(=O)CN(CC(=O)NC)C(=O)NC
inactive: COLO 205 > 100 µM | NCI-H226 > 100 µM | SF-295 > 100 µM | SK-MEL-2 > 100 µM | LOX IMVI > 100 µM | UACC-62 > 100 µM | SNB-75 > 100 µM | TK-10 > 100 µM | SF-539 > 100 µM | A549 > 100 µM | U-251 > 100 µM | M14 > 100 µM | RXF 393 > 100 µM | HCC 2998 > 100 µM | OVCAR-5 > 100 µM | SK-OV-3 > 100 µM | HOP-92 > 100 µM

COC(=O)c1cc(O)ccc1NC(=O)c1ccc(O)cc1
inactive: COLO 205 > 100 µM | NCI-H226 > 100 µM | SF-295 > 100 µM | SK-MEL-2 > 100 µM | LOX IMVI > 100 µM | UACC-62 > 100 µM | SNB-75 > 100 µM | TK-10 82.2 µM | SF-539 > 100 µM | A549 > 100 µM | U-251 > 100 µM | M14 > 100 µM | HCC 2998 > 100 µM | OVCAR-5 > 100 µM | SK-OV-3 > 100 µM | HOP-92 87.7 µM

COC(=O)N1CCc2c(nc(N(C)CCO)[nH]c2=O)C1
inactive: COLO 205 > 100 µM | NCI-H226 > 100 µM | SF-295 > 100 µM | SK-MEL-2 > 100 µM | LOX IMVI > 100 µM | UACC-62 > 100 µM | SNB-75 > 100 µM | TK-10 > 100 µM | SF-539 > 100 µM | A549 > 100 µM | U-251 > 100 µM | M14 > 100 µM | RXF 393 > 100 µM | HCC 2998 > 100 µM | OVCAR-5 > 100 µM | SK-OV-3 > 100 µM | HOP-92 > 100 µM

CN/N=C(\C)C(CN1CCCCC1)C(C1=C(O)c2ccccc2OC1)c1ccccc1 (centres undefined)
inactive: COLO 205 38.4 µM | NCI-H226 > 100 µM | SF-295 82 µM | SK-MEL-2 > 100 µM | LOX IMVI > 100 µM | UACC-62 48 µM | SNB-75 > 100 µM | TK-10 > 100 µM | SF-539 > 100 µM | A549 > 100 µM | U-251 91.2 µM | M14 > 100 µM | RXF 393 > 100 µM | HCC 2998 > 100 µM | OVCAR-5 > 100 µM | SK-OV-3 > 100 µM

COC(=O)C1=C(C(=O)OC)SC(=CC#CC=C2SC(C(=O)OC)=C(C(=O)OC)S2)S1
inactive: COLO 205 11.7 µM | NCI-H226 10.6 µM | SF-295 2.82 µM | SK-MEL-2 12.9 µM | LOX IMVI 9.71 µM | UACC-62 8.26 µM | SNB-75 7 µM | TK-10 9.06 µM | SF-539 2.19 µM | A549 25.5 µM | U-251 16.1 µM | M14 13.6 µM | HCC 2998 10.8 µM | OVCAR-5 > 90.6 µM | SK-OV-3 16.5 µM | HOP-92 16.2 µM

CC(C)OP(=O)(NC(=S)c1ccccc1)OC(C)C
inactive: COLO 205 > 100 µM | NCI-H226 > 100 µM | SF-295 > 100 µM | SK-MEL-2 > 100 µM | LOX IMVI > 100 µM | UACC-62 71.1 µM | SNB-75 > 100 µM | TK-10 > 100 µM | SF-539 > 100 µM | A549 92 µM | U-251 > 100 µM | M14 > 100 µM | HCC 2998 > 100 µM | OVCAR-5 > 100 µM | SK-OV-3 > 100 µM | HOP-92 > 100 µM

N#Cc1c(-c2ccco2)cc(-c2ccccc2)nc1O
inactive: COLO 205 > 100 µM | NCI-H226 > 100 µM | SF-295 > 100 µM | LOX IMVI > 100 µM | UACC-62 > 100 µM | SNB-75 56.4 µM | TK-10 > 100 µM | SF-539 > 100 µM | A549 > 100 µM | U-251 > 100 µM | M14 > 100 µM | RXF 393 > 100 µM | HCC 2998 > 100 µM | OVCAR-5 > 100 µM | SK-OV-3 > 100 µM | HOP-92 > 100 µM

CC1(C)c2ccccc2N2O[C@@H]3C(=O)N(c4ccccc4)C(=O)[C@@H]3C21c1ccccc1 (some centres undefined)
inactive: COLO 205 > 100 µM | NCI-H226 > 100 µM | SF-295 > 100 µM | SK-MEL-2 > 100 µM | LOX IMVI > 100 µM | UACC-62 > 100 µM | SNB-75 84.1 µM | TK-10 > 100 µM | SF-539 > 100 µM | A549 > 100 µM | M14 > 100 µM | RXF 393 14.6 µM | HCC 2998 > 100 µM | SK-OV-3 > 100 µM

CCOC1c2nc3ccccc3nc2-c2ccccc2N1C(C)=O (centres undefined)
inactive: COLO 205 > 100 µM | SF-295 69.3 µM | SK-MEL-2 81.7 µM | UACC-62 > 100 µM | SNB-75 46.2 µM | SF-539 > 100 µM | A549 > 100 µM | U-251 > 100 µM | M14 > 100 µM | RXF 393 28.3 µM | HCC 2998 > 100 µM | SK-OV-3 > 100 µM | HOP-92 29.2 µM

CC(C)c1cccc(C(C)C)c1NC(=S)NN=C1C=C(C(C)(C)C)C(=O)C(C(C)(C)C)=C1
inactive: COLO 205 20.1 µM | NCI-H226 10 µM | SF-295 31 µM | SK-MEL-2 20.2 µM | LOX IMVI 18.2 µM | UACC-62 20.3 µM | SNB-75 21.2 µM | TK-10 30.4 µM | SF-539 19.9 µM | A549 19.9 µM | U-251 16.2 µM | M14 41.6 µM | RXF 393 16.7 µM | HCC 2998 23.5 µM

CC1CCP(=O)(c2ccccc2)c2ccccc21 (centres undefined)
inactive: COLO 205 51.8 µM | NCI-H226 > 100 µM | SF-295 > 100 µM | SK-MEL-2 > 100 µM | LOX IMVI 24.3 µM | UACC-62 52.8 µM | SNB-75 > 100 µM | TK-10 > 100 µM | SF-539 56.1 µM | A549 > 100 µM | U-251 24.1 µM | M14 > 100 µM | RXF 393 > 100 µM | HCC 2998 38.8 µM | OVCAR-5 > 100 µM | SK-OV-3 > 100 µM

CCC(=O)C1=C(OC(C)=O)C2Cc3c(n(C)c4ccccc34)C(C1)N2C (centres undefined)
inactive: COLO 205 34 µM | NCI-H226 > 100 µM | SF-295 > 100 µM | SK-MEL-2 63.7 µM | LOX IMVI 40.5 µM | UACC-62 26.2 µM | SNB-75 25.5 µM | TK-10 66.1 µM | SF-539 16.7 µM | A549 68.5 µM | U-251 > 100 µM | M14 37.8 µM | HCC 2998 38 µM | OVCAR-5 > 100 µM | SK-OV-3 > 100 µM | HOP-92 67 µM
